Reference: patent publication US20200377551A1, “PEPTIDE CONSTRUCTS AND METHODS FOR ENHANCEMENT OF INTERFERON PRODUCTION” (Wake Forest University Health Sciences, priority 2019, published 2020)
Like-named read-outs stand apart in the source and are kept apart here.

Key:
Sendai virus = format: cell-based
RLR signaling [1] = assay: Q-PCR analysis of IFN-β expression in Hep3B cells transfected with Poly(I:C); format: cell-based; conditions: Hep3B control cells; effect markedly impaired upon MCT1 knockdown
RLR signaling [2] = format: cell-based
MAVS [3] = molecular target: T1, MAVS (Homo sapiens, UniProt Q7Z434); assay: Lactate-MAVS binding (biotin-lactate pulldown, immunoprecipitation, in vitro binding)
Target sequence in this assay (Q7Z434 2-540 limits assumed): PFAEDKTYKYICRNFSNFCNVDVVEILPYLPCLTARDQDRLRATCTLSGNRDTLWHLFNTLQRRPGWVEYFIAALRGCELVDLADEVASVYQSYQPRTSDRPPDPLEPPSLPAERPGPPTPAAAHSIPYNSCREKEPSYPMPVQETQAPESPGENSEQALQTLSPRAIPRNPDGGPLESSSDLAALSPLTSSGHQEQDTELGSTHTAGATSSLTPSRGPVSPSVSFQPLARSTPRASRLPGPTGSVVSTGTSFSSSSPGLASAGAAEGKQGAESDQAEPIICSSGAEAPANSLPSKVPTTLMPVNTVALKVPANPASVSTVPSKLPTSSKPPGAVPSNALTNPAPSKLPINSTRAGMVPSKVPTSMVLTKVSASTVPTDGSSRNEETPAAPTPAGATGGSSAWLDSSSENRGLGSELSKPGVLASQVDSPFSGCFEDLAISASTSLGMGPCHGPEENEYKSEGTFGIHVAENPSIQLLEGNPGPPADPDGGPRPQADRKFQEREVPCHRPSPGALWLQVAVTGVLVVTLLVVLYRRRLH

MAVS [4] = molecular target: T1, MAVS; assay: MAVS mitochondria localization in HEK293 cells (immunoblot of mitochondria fraction, immunofluorescence)
Target sequence in this assay (Q7Z434 whole entry): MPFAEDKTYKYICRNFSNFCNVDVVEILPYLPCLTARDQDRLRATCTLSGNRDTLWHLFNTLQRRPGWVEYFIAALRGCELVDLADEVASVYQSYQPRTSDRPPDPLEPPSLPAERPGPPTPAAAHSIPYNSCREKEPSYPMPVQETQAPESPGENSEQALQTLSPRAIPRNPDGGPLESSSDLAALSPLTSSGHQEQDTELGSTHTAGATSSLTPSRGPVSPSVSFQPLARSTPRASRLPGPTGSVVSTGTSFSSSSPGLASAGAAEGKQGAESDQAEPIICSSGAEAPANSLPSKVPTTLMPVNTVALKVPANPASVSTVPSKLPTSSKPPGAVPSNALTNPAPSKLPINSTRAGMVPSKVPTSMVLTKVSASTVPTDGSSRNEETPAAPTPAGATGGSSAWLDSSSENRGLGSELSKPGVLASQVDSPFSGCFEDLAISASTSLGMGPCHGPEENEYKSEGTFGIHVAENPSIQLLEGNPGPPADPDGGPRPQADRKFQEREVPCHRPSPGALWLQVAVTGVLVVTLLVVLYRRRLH

RIG-I/MAVS = molecular target: T2, RIG-I/MAVS (Homo sapiens, UniProt Q7Z434); assay: Immunoprecipitation of activated RIG-I and MAVS in HEK293 cells; format: cell-based; conditions: basal and Sendai virus-infected conditions
T2 construct: host or cells: HEK293 (per the earlier reading)

RLR signaling [5] = format: cell-based, mice
MAVS signaling = format: cell-based
HeLa cells = assay: Immunofluorescence cellular localization of peptides in HeLa cells; format: cell-based; conditions: HeLa cells pretreated with peptides; MAVS or Tat antibody staining; data not shown
VSV = format: in vivo; conditions: mice; sodium oxamate (750 mg/kg)
HSV = test system: HSV; design: species or system mice; conditions: mouse, in vivo
MAVS-TBK1-IRF3 = assay: IRF3 and TBK1 phosphorylation and MAVS aggregation in cells upon RLR activation; format: cell-based; conditions: data not shown
Protocol: In vivo and in vitro MAVS aggregation assays. In vivo MAVS aggregation was performed according to published protocol (Hou et al., 2011). In brief, mitochondria were isolated by using the Mitochondria isolation kit (Thermo 89874), and mitochondria pellet was suspended in 1×sample buffer (0.5×TBE, 10% glycerol, 2% SDS, and 0.0025% bromophenol blue) and subjected to Semi-denaturing detergent agarose gel electrophoresis (SDD-AGE). Samples were loaded onto a vertical 1.5% agarose gel (Bio-Rad). After electrophoresis in the running buffer (1×TBE and 0.1% SDS) for 40 min with a constant voltage of 80-100 V at 4° C., the proteins were transferred to Immobilon membrane (Millipore) for immunoblotting.

HEK293 cells [6] = assay: Lactate level measurement in HEK293 cells; format: cell-based; conditions: sodium oxamate (20 mM) overnight
HK2 = assay: Immunoblot of HK2 level in the mitochondria fraction of THP1 cells; conditions: Poly(I:C) or HTDNA transfection or LPS stimulation
HEK293 cells [7] = assay: Metabolomics analysis of HEK293 cells after Poly(I:C) transfection; format: cell-based
Text: To investigate whether energy metabolism participates in regulating type-I IFN production, an unbiased, a systemic metabolomics approach was employed to examine the global metabolic changes during RLR-induced type-I IFN production. Changes of metabolites in glycolysis or oxidative phosphorylation were observed upon transfection of HEK293 cells with Poly(I:C) and harvesting for metabolomics analysis. […] As the direct pyruvate downstream metabolite, Acetyl-CoA production would be expected to decrease due to the reduction in pyruvate level, leading to the slower consumption of OAA for citrate production and thus maintaining the OAA level.

RLR signaling [8] = format: cell-based; remark: listed apart in the source
iBMM cells = format: cell-based
VSV-GFP = format: cell-based, Vesicular stomatitis virus
[9] = 2 hours post PolyI:C transfection
[10] = 4 hours post PolyI:C transfection
[11] = 8 hours post PolyI:C transfection

T2 sequence (Q7Z434 whole entry): as above

## O=CC[C@@H](O)[C@H](O)[C@H](O)CO [2-DG, 2-deoxy-glucose]
Sendai virus
  virus replication: reduction in virus replication
RLR signaling [1]
  IFN-β expression: promoted IFN-β expression
RLR signaling [2]
  IFN-β and IL-6 production driven by RLR stimuli: markedly enhanced

## CC(O)C(=O)O (centres unmarked) [lactate]
MAVS [3]; biotin-labeled lactate mixed with whole cell extracts (HEK293)
  interaction with RLR signaling proteins in biotin pulldown: specifically interacted with MAVS
MAVS [3]; complexes immunoprecipitated by anti-MAVS antibody from HEK293 cells
  interaction with MAVS in cells under physiological conditions: interacted with lactate
MAVS [3]; pre-incubation with excessive lactate, data not shown
  binding of MAVS to Biotin-lactate: significantly attenuated
MAVS [4]; lactate add-back with oxamate
  effect of oxamate on MAVS mitochondria localization: compromised this effect
RIG-I/MAVS
  interaction between activated RIG-I and MAVS: markedly reduced
RLR signaling [5]
  IFN-β production: consistently reduced

## N#C/C(=C\c1cn(-c2ccccc2)c2ccccc12)C(=O)O [UK5099]
MAVS signaling
  MAVS signaling and IFN-β induction: decreased
  lactate level: elevated

## control peptide: corresponding control construct (SEQ ID NO:43) (YGRKKRRQRRRATGVLYLLVVLVWVAAQGVLTVL)
HeLa cells
  entry into cells: found to enter into cells

## NC(=O)C(=O)[O-].[Na+] [sodium oxamate]
Sendai virus
  virus replication: suppressing virus replication
VSV
  lactate production: reduced
HSV
  IFN production: no difference
RLR signaling [1]
  IFN-β expression: promoted IFN-β expression
MAVS-TBK1-IRF3
  IRF3 and TBK1 phosphorylation and MAVS aggregation upon RLR activation: promoted
HEK293 cells [6]
  lactate level: reduced
MAVS [4]; oxamate alone
  MAVS mitochondria localization: potentiated
RIG-I/MAVS
  interaction between activated RIG-I and MAVS: enhanced
RLR signaling [2]
  IFN-β production: enhanced

## polyI:C
HK2
  mitochondria HK2 level: decreased
HEK293 cells [7]; [9]
  Relative Quantity, 2/3-Phosphoglyceric Acid (185.0/97.0): 0.4994
  Relative Quantity, 3HBA (103.0/59.0): 0.6808
  Relative Quantity, Aconitate (173.0/85.0): 0.7655
  Relative Quantity, Alpha-Ketoglutaric Acid (145.0/101.0): 0.94
  Relative Quantity, D-GA3P (168.9/97.0): 0.5042
  Relative Quantity, DHAP (168.9/78.8): 0.6334
  Relative Quantity, F16BP/F26BP/G16BP (339.0/97.0): 0.5666
  Relative Quantity, Fumaric Acid (115.0/71.0): 0.7279
  Relative Quantity, G1P/G6P/F6P/F1P (259.0/97.0): 0.712
  Relative Quantity, Glucose (179.0/89.0): 1.118
  Relative Quantity, Lactate (89.0/43.0): 0.536
  Relative Quantity, Malate (133.0/115.0): 0.6979
  Relative Quantity, Maleic Acid (115.0/71.0 (2)): 0.6194
  Relative Quantity, Malonic Acid (103.0/41.0): 0.5644
  Relative Quantity, Oxalacetate (131.0/113.0): 0.977
  Relative Quantity, PEP (166.9/79.0): 0.3968
  Relative Quantity, Pyruvate (87.0/43.0): 0.683
  Relative Quantity, Succinate (117.0/73.0): 0.7616
HEK293 cells [7]; [10]
  Relative Quantity, 2/3-Phosphoglyceric Acid (185.0/97.0): 0.7985
  Relative Quantity, 3HBA (103.0/59.0): 0.7735
  Relative Quantity, Aconitate (173.0/85.0): 0.6576
  Relative Quantity, Alpha-Ketoglutaric Acid (145.0/101.0): 0.8959
  Relative Quantity, D-GA3P (168.9/97.0): 0.6278
  Relative Quantity, DHAP (168.9/78.8): 0.935
  Relative Quantity, F16BP/F26BP/G16BP (339.0/97.0): 0.9103
  Relative Quantity, Fumaric Acid (115.0/71.0): 0.7094
  Relative Quantity, G1P/G6P/F6P/F1P (259.0/97.0): 0.8706
  Relative Quantity, Glucose (179.0/89.0): 1.093
  Relative Quantity, Lactate (89.0/43.0): 0.657
  Relative Quantity, Malate (133.0/115.0): 0.7843
  Relative Quantity, Maleic Acid (115.0/71.0 (2)): 0.7566
  Relative Quantity, Malonic Acid (103.0/41.0): 0.6946
  Relative Quantity, Oxalacetate (131.0/113.0): 1.006
  Relative Quantity, PEP (166.9/79.0): 0.7706
  Relative Quantity, Pyruvate (87.0/43.0): 0.7115
  Relative Quantity, Succinate (117.0/73.0): 0.8793
HEK293 cells [7]; [11]
  Relative Quantity, 2/3-Phosphoglyceric Acid (185.0/97.0): 1.118
  Relative Quantity, 3HBA (103.0/59.0): 1.035
  Relative Quantity, Aconitate (173.0/85.0): 0.7724
  Relative Quantity, Alpha-Ketoglutaric Acid (145.0/101.0): 0.965
  Relative Quantity, D-GA3P (168.9/97.0): 0.998
  Relative Quantity, DHAP (168.9/78.8): 1.101
  Relative Quantity, F16BP/F26BP/G16BP (339.0/97.0): 1.127
  Relative Quantity, Fumaric Acid (115.0/71.0): 1.057
  Relative Quantity, G1P/G6P/F6P/F1P (259.0/97.0): 1.034
  Relative Quantity, Glucose (179.0/89.0): 0.9641
  Relative Quantity, Lactate (89.0/43.0): 1.05
  Relative Quantity, Malate (133.0/115.0): 0.9353
  Relative Quantity, Maleic Acid (115.0/71.0 (2)): 0.9352
  Relative Quantity, Malonic Acid (103.0/41.0): 0.9823
  Relative Quantity, Oxalacetate (131.0/113.0): 1.032
  Relative Quantity, PEP (166.9/79.0): 1.062
  Relative Quantity, Pyruvate (87.0/43.0): 1.023
  Relative Quantity, Succinate (117.0/73.0): 0.8886

## O=C[C@H](O)[C@@H](O)[C@@H](O)[C@H](O)CO [galactose]
RLR signaling [8]
  IFN-β and IL-6 production upon poly(I:C) or Sev challenge: markedly enhanced
iBMM cells
  anaerobic glycolysis-mediated lactate production: impaired
VSV-GFP
  GFP expression: no GFP expression
  viral replication, as determined by GFP fluorescence: marked reduction in viral replication
